Entries after “also recorded” stand apart in the source; their conditions may differ.
Assays:
JEB01 keratinocytes = experiment: Measurement of intracellular G418 (gentamicin ELISA) in JEB01 keratinocytes; type: cell-based, human; conditions: 150 μM AC1903 (Fig. 2F)
Experimental: Figure 2 Effect of AC1903 on PTC readthrough and G418 trafficking.A and B, DMS-114 (A) or TC-71 (B) cells were pretreated with indicated concentrations of AC1903 for 3 h followed by exposure to 400 μg/ml G418. After 3 h medium was replenished and at 24 h cell lysates were prepared and p53 levels were measured. C and E, DMS-114 (C) or JEB01 (E) cells were either left untreated or pretreated with 150 μM AC1903 for 3 h followed by exposure to indicated concentrations of G418 for another 3 h. At 24 h cell lysates were prepared and p53 (C) or Collagen XVII (E) levels were measured. In panels A–C, protein levels were measured by automated capillary electrophoresis Western analysis (using vinculin as loading control). In panel E, protein levels were measured by Western blot (using beta-actin as loading control). […] D, total intracellular levels of G418 were measured in the same lysates as in (C) (n = 5; data normalized to the highest response in each experiment; bars represent mean ± SD). F, total intracellular levels of G418 were measured in the same lysates as in (E) (n = 2; data normalized to the highest response in each experiment; bars represent mean ± SD). ∗ indicates statistically significant difference between samples according to one-way ANOVA (p < 0.05). […]

A498 cells = experiment: Cell viability assay (WST-1), A498 cells, AC1903 alone; type: cell-based; conditions: 0.1–100 μM, 8 h
Experimental: Cell viability assays were carried out using WST-1 Cell Proliferation Reagent (Merck). A498 cells were plated onto clear 96-well plates at 4000 cells per well and left to adhere for 24 h. Media was then removed, and replaced with fresh media containing 100 nM EA, in presence of either DMSO or 0.1 to 100 μM AC1903. Control wells were treated with vehicle (DMSO) only. To exclude any potential cytotoxic effects of AC1903 itself, cells were incubated with 0.1 to 100 μM AC1903 in absence of EA. Cells were treated in triplicate. Cells were incubated with compounds for 8 h. After 8 h, treatment media was removed and media containing WST-1 reagent (10 μl reagent +100 μl media per well) was added to each well and incubated for 1.5 h at 37 °C. Blank wells contained media and WST-1 reagent (no cells). […] Absorbance was then read at 440 nm and 650 nm (reference wavelength). To analyze data, the value of the 650 nm was subtracted from that of the 440 nm reading. Values across triplicate wells were averaged, and the value from the blank wells subtracted to account for background absorbance. […]
Inhibition of G418-induced premature stop codon readthrough
A498 cytotoxicity . […] Cell viability was calculated as % of control, and the effect of AC1903 was compared to control (0 µM ) (scatter plots showing data from three independent experiments; bars represent mean ± SD; n = 3). […]

TRPC4 channels = system: TRPC4 channels; parameters: method as in PubChem AID 434942 – SID 865888; conditions: ref PubChem AID 434942 – SID 865888; cited from earlier work

## c1ccc(Cn2c(NCc3ccco3)nc3ccccc32)cc1 [AC1903]
JEB01 keratinocytes
  intracellular G418 levels in cells exposed to AC1903: significantly declined
A498 cells
  effect on viability of A498 cells: not toxic; also recorded: did not affect viability
TRPC4 channels
  IC50: 600 nM
